Assay results taken from US4457928A, “Cephem compounds” (Fujisawa Pharmaceutical Co., Ltd., priority 1980, dated 1984).
≈ marks a conversion by molar mass, not a printed value.

What was measured:
Experiment in all cases: minimal inhibitory concentration (MIC), agar streak test
Type in all cases: cell-based
B. subtilis ATCC 6633 = conditions: Bacillus subtilis, ATCC6633, heart infusion agar, 37° C., 20 hours, 10^8 viable cells per ml
Protocol: (§1) One loopful of an overnight culture of each test strain in Trypticase-soy broth (10^8 viable cells per ml.) was streaked on heart infusion agar (HI-agar) containing graded concentrations of antibiotics, and the minimal inhibitory concentration (MIC) was expressed in terms of μg/ml after incubation at 37° C. for 20 hours.

Ps. aeruginosa 2 = conditions: Pseudomonas aeruginosa, heart infusion agar, 37° C., 20 hours, 10^8 viable cells per ml
Protocol: as §1

S. marcescens 35 = conditions: Serratia marcescens, heart infusion agar, 37° C., 20 hours, 10^8 viable cells per ml
Protocol: as §1

| SMILES | MIC (B. subtilis ATCC 6633) | MIC (Ps. aeruginosa 2) | MIC (S. marcescens 35) |
| --- | --- | --- | --- |
| CCO/N=C(\C(=O)NC1C(=O)N2C(C(=O)[O-])=C(C[n+]3cccc(CO)c3)CSC12)c1nsc(N)n1 (stereo not drawn) [(1)] | 0.78 µg/mL (≈ 1.5 µM) | 6.25 µg/mL (≈ 12 µM) | 3.13 µg/mL (≈ 6.02 µM) |
| CCO/N=C(\C(=O)NC1C(=O)N2C(C(=O)[O-])=C(C[n+]3ccc(CO)cc3)CSC12)c1nsc(N)n1 (stereo not drawn) [(2)] | 0.78 µg/mL (≈ 1.5 µM) | 12.5 µg/mL (≈ 24.1 µM) | 1.56 µg/mL (≈ 3 µM) |
| CCO/N=C(\C(=O)NC1C(=O)N2C(C(=O)[O-])=C(C[n+]3cccc(Cl)c3)CSC12)c1nsc(N)n1 (stereo not drawn) [(3)] | 0.78 µg/mL (≈ 1.49 µM) | 6.25 µg/mL (≈ 11.9 µM) | 3.13 µg/mL (≈ 5.97 µM) |

The next lines start with the values.

| MIC (B. subtilis ATCC 6633) | MIC (Ps. aeruginosa 2) | MIC (S. marcescens 35) | SMILES |
| --- | --- | --- | --- |
| 1.56 µg/mL (≈ 3.01 µM) | 6.25 µg/mL (≈ 12.1 µM) | 3.13 µg/mL (≈ 6.05 µM) | CCO/N=C(\C(=O)NC1C(=O)N2C(C(=O)[O-])=C(C[n+]3cc(C)cc(C)c3)CSC12)c1nsc(N)n1 (stereo not drawn) [(4)] |
| 0.78 µg/mL (≈ 1.42 µM) | 12.5 µg/mL (≈ 22.8 µM) | 1.56 µg/mL (≈ 2.85 µM) | CCO/N=C(\C(=O)NC1C(=O)N2C(C(=O)[O-])=C(C[n+]3ccc(CCCO)cc3)CSC12)c1nsc(N)n1 (stereo not drawn) [(5)] |
